# Measured values reported in patent publication US9150627B2, “Anti tumoral immunogenic peptides and vaccine thereof” (priority 2004, dated 2015).
# Where no end group is shown, it is not given here.
# Tested on: DHD-K12 cells
# Settings: rat, in vivo
# Description: Autologous colon carcinoma DHD-K12 line cells were inoculated intra-splenically in BDIX rats. These cells metastatize at polmonar and hepatic level and naturally express the epitope common also to human colon rectal carcinoma ([…] (SEQ ID NO:4)). To evaluate the relevance of […] (SEQ ID NO:4) antigen in antigen specific cytotoxic response BDIX rats were immunized with DHD-K12.
# PBMC cytotoxic activity (cytotoxicity test based on the release of ^51Cr or LDH) of BDIX rats against DHD-K12 cells was evaluated after immunization and tumor inoculum.
sequence,measurement,value
RTQKEASIC,"PBMC cytotoxic activity after tumor inoculum, pre-immunized vs non immunized rats",significantly increased
same,PBMC cytotoxic activity against DHD-K12 after immunization,high cytotoxic activity
